Reference: publication PMC10907298 (Nature chemical biology, 2023)
Values joined by “and” are separate entries in the source; they are usually repeats but may differ in a detail not shown here. Equal values may be shown once. Blank lines part the entries; values can stand above or below the compound they belong to.

Assays:
human STING (WT) = human STING (WT) (Homo sapiens, UniProt Q86WV6); assay: ISRE reporter assay with STING co-transfection in HEK293T cells; type: cell-based; conditions: hSTING, Figure S1f
[1] = molecular target: hSTING(1–153)–mSTING(153–378) chimera (Homo sapiens, UniProt Q86WV6, A215V/A300E/A302V/A313V/A318T/A350V/D237N/D297E/D320G/E174G/E362R/E369D/G230I/G344N/H185L/H232R/I244V/K224M/K347M/K370Q/L189M/L202F/L222R/L247I/L333I/L346P/M214V/M357L/Q196R/Q276K/Q306R/R191S/R253P/S275A/S321N/S345A/S353P/T181M/T229N/T256V/T354P/T356V/V194G/V258I/V343M/V351A/Y182F/Y186H/Y274D); assay: as above; type: cell-based, human/mouse; conditions: for ISRE reporter activity, mean: h(1-153)/m(153-378)STING, Figure S1f
STING(TMEM173) = STING(TMEM173) (Homo sapiens, UniProt Q86WV6, G230A/R293Q/R71H); assay: photoaffinity labeling and competition chemoproteomics in THP-1 cells; type: binding
human STING = human STING (Homo sapiens, UniProt Q86WV6, G230A/R293Q/R71H); assay: THP1-Dual ISRE-Luc reporter gene assay (primary screen and dose response); conditions: for THP1-Dual reporter activity: single replicates (n=2); for AC50: THP1-Dual ISRE-Luc Assay
[2] = molecular target: TXNDC12 Thioredoxin domain-containing protein 12 (Homo sapiens, UniProt O95881); assay: photoaffinity labeling and competition chemoproteomics in THP-1 cells; type: binding
[3] = molecular target: SLC25A13 Calcium-binding mitochondrial carrier protein Aralar2 (Homo sapiens, UniProt Q9UJS0); assay: as above
RABL6 Rab-like protein 6 = RABL6 Rab-like protein 6 (Homo sapiens, UniProt Q3YEC7); assay: as above; type: binding
SYNE2 Nesprin-2 = SYNE2 Nesprin-2 (Homo sapiens, UniProt Q8WXH0); assay: as above; type: binding
BMDM, WT mSTING = assay: IP10 induction in bone marrow-derived macrophages; type: cell-based, mouse; conditions: 50μM, n=1
BMDM, mSTING Indel/Indel = assay: IP10 induction in bone marrow-derived macrophages; type: cell-based, mouse; conditions: 50μM, n=1
[4] = system: BMDM, human STING knock-in; assay: IP10 induction in bone marrow-derived macrophages; type: cell-based, mouse; conditions: 50μM, n=1

Chain of human STING (WT) (Q86WV6 whole entry): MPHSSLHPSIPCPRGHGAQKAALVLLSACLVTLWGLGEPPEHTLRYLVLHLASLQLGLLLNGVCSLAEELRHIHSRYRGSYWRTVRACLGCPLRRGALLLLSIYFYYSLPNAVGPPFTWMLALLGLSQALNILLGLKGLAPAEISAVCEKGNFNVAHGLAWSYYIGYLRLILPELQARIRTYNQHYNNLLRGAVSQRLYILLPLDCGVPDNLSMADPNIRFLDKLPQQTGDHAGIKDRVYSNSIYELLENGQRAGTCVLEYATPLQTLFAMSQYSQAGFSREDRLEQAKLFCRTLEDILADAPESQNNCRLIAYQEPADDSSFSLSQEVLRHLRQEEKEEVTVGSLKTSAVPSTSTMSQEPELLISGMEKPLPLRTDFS
Chain of STING(TMEM173) (Q86WV6 whole entry R71H/G230A/R293Q): as the sequence (Q86WV6 whole entry) above, with R71H, G230A, R293Q counted along it
Chain of human STING (Q86WV6 whole entry R71H/G230A/R293Q, the tested form may be a part): as the sequence (Q86WV6 whole entry) above, with R71H, G230A, R293Q counted along it
Chain of hSTING(1–153)–mSTING(153–378) chimera (Q86WV6 with tags, fused parts or gaps with the stated changes): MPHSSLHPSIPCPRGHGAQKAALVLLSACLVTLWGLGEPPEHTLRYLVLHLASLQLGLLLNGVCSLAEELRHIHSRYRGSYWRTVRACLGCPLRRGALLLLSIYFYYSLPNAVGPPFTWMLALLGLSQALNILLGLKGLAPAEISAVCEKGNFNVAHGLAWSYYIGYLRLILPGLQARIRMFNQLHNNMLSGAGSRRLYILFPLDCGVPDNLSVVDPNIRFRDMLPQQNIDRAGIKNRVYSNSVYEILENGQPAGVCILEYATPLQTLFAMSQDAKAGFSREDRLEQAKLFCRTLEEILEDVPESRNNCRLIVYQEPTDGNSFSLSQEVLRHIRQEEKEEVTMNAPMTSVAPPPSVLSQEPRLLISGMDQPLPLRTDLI
Chain of TXNDC12 Thioredoxin domain-containing protein 12 (O95881 27-172): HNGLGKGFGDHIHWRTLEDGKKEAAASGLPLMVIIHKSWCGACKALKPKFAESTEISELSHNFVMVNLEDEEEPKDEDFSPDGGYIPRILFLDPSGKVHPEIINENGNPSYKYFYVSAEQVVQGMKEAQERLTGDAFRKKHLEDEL
Chain of SLC25A13 Calcium-binding mitochondrial carrier protein Aralar2 (Q9UJS0 whole entry): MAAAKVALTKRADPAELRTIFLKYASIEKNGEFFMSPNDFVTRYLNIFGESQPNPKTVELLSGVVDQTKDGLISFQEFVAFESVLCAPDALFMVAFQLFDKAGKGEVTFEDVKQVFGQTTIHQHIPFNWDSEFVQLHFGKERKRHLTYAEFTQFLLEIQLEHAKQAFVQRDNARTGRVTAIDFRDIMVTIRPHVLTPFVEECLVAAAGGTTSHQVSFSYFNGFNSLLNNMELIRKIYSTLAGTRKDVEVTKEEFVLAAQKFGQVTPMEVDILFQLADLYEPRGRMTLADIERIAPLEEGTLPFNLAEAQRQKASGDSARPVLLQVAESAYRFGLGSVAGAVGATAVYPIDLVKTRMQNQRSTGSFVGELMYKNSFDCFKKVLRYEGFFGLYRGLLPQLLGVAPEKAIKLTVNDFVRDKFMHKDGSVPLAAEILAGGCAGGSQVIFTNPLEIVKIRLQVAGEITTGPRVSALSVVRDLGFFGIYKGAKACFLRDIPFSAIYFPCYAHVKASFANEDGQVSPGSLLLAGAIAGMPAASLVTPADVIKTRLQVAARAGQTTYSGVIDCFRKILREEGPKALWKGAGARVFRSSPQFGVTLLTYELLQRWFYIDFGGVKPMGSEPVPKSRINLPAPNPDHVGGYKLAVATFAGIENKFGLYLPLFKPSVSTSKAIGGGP
Chain of RABL6 Rab-like protein 6 (Q3YEC7 whole entry): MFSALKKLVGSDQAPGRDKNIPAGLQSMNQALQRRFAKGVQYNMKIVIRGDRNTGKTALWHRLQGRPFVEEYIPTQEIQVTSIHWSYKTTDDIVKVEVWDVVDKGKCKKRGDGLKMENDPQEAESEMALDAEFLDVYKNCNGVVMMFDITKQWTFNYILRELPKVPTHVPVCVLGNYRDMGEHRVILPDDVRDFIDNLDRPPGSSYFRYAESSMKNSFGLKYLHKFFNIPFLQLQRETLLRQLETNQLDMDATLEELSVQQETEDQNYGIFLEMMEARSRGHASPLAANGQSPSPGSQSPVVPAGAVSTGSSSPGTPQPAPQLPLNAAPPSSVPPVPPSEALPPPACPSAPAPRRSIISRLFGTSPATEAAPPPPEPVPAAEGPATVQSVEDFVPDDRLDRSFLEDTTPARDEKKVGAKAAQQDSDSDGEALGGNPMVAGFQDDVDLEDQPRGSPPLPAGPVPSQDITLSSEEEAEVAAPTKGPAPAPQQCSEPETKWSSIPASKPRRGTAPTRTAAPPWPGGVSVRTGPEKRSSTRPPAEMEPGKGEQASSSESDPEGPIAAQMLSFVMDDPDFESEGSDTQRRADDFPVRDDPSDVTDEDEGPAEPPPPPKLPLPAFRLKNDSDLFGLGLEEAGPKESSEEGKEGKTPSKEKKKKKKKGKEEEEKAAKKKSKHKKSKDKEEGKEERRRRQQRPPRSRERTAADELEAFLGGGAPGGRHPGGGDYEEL

Structure (SMILES): Cc1ccc2c(=O)c3cccc(CC(=O)O)c3oc2c1C [DMXAA, 5,6-dimethylxanthenone-4-acetic acid, reference compound]
ISRE reporter activity, mean (human STING (WT); Log[μM] 0): 1.3 | ISRE reporter activity, mean (human STING (WT); Log[μM] 0.3): 1.4 | ISRE reporter activity, mean (human STING (WT); Log[μM] 0.6): 1.2 | ISRE reporter activity, mean (human STING (WT); Log[μM] 0.9): 1.3 | ISRE reporter activity, mean (human STING (WT); Log[μM] 1.2): 1 | ISRE reporter activity, mean (human STING (WT); Log[μM] 1.5): 1.6 | ISRE reporter activity, mean (human STING (WT); Log[μM] 1.8): 1.2 | ISRE reporter activity, mean (human STING (WT); Log[μM] 2.1): 1.4 | ISRE reporter activity, mean (human STING (WT); Log[μM] 2.4): 1.5 | ISRE reporter activity, mean (human STING (WT); Log[μM] 2.7): 1.9 | ISRE reporter activity, mean ([1]; Log[μM] 0): 0.7 | ISRE reporter activity, mean ([1]; Log[μM] 0.3): 0.7 | ISRE reporter activity, mean ([1]; Log[μM] 0.6): 0.7 | ISRE reporter activity, mean ([1]; Log[μM] 0.9): 0.9 | ISRE reporter activity, mean ([1]; Log[μM] 1.2): 9.4 | ISRE reporter activity, mean ([1]; Log[μM] 1.5): 82.5 | ISRE reporter activity, mean ([1]; Log[μM] 1.8): 101.1 | ISRE reporter activity, mean ([1]; Log[μM] 2.1): 106.7 | ISRE reporter activity, mean ([1]; Log[μM] 2.4): 109.5 | STING activation in words ([1]; hSTING TMD–mSTING LBD chimera): responded fully

competition of NVS-STG4 labeling in words (STING(TMEM173); 20 μM competitor, 1 μM NVS-STG4): competed | THP1-Dual reporter activity (human STING; 97.7 nM): -1.082 and 21.604 | THP1-Dual reporter activity (human STING; 195 nM): -3.144 and -12.05 | THP1-Dual reporter activity (human STING; 391 nM): -15.339 and 25.944 | THP1-Dual reporter activity (human STING; 781 nM): 62.36 and 63.63 | THP1-Dual reporter activity (human STING; 1563 nM): 1502.2 and 1735.82 | THP1-Dual reporter activity (human STING; 3125 nM): 6139.8 and 5609.9 | THP1-Dual reporter activity (human STING; 6250 nM): 8825.5 and 7956 | THP1-Dual reporter activity (human STING; 12500 nM): 8733.31 and 7877.19 | AC50 (human STING): 2.7 µM
Structure (SMILES): CNc1ccccc1CS(=O)(=O)NC(=O)c1ccc(NCc2ccc(C3(C(C)(C)C)OCC(C)(C)CO3)cc2)c(OC)c1 [NVS-STG3]

enrichment of STING(TMEM173) over no probe control (STING(TMEM173); 1 μM probe, pull-down): over 2 fold | Abundance Ratio (log2): (DMSO) / (NJC652) (STING(TMEM173); TMEM173): -1.82 | Abundance Ratio (log2): (DMSO) / (NJC652) [2]: -0.18 | Abundance Ratio (log2): (DMSO) / (NJC652) [3]: -0.21 | Abundance Ratio (log2): (DMSO) / (NJC652) (RABL6 Rab-like protein 6): 0.01 | Abundance Ratio (log2): (DMSO) / (NJC652) (SYNE2 Nesprin-2): 0.26 | THP1-Dual reporter activity (human STING; 97.7 nM): -53.887 and -41.218 | THP1-Dual reporter activity (human STING; 195 nM): -52.59 and -42.841 | THP1-Dual reporter activity (human STING; 391 nM): -38.43 and -29.964 | THP1-Dual reporter activity (human STING; 781 nM): -39.736 and -25.431 | THP1-Dual reporter activity (human STING; 1563 nM): -32.277 and -48.463 | THP1-Dual reporter activity (human STING; 3125 nM): -20.873 and -28.245 | THP1-Dual reporter activity (human STING; 6250 nM): 1623.13 and 1111.27 | THP1-Dual reporter activity (human STING; 12500 nM): 4114.59 and 3953.84 | THP1-Dual reporter activity (human STING; 25000 nM): 2243.38 and 2653.78 | AC50 (human STING): 6.9 µM
Structure (SMILES): C#CCCC1(CCC(=O)NCCCS(=O)(=O)NC(=O)c2ccc(NCc3ccc(C4(C(C)(C)C)OCC(C)(C)CO4)cc3)c(OC)c2)N=N1 [NVS-STG4]

Structure (SMILES): Nc1nc2c(ncn2[C@@H]2O[C@@H]3COP(=O)(O)O[C@H]4[C@@H](O)[C@H](n5cnc6c(N)ncnc65)O[C@@H]4COP(=O)(O)O[C@@H]2[C@@H]3O)c(=O)[nH]1 [cGAMP, 2’,3’-cGMP-AMP, reference compound]
IP10 (BMDM, WT mSTING): 3440.25 pg/mL | IP10 (BMDM, mSTING Indel/Indel): 0 pg/mL | IP10 ([4]; BMDM hSTING+/+): 2945 pg/mL | IP10 ([4]; BMDM hSTING+/indel): 1331.5 pg/mL
